According to article PMC6013238, “Development of novel NEMO-binding domain mimetics for inhibiting IKK/NF-κB activation” (PLoS Biology, 2018):

System: p-IκBα (IKK kinase activity)
Experiment: Western blot of p-IκBα after TNF-α in HEK293 cells
Assay type: cell-based, human
Conditions: 100 μM, 30 min pretreatment, TNF-α 10 ng/ml 0, 5, 10 min
Description: To confirm that the NBD mimetics reduce IKK kinase activity, phosphorylation of IκBα by IKK in response to 10 ng/ml of TNF-α was measured by western blot at 0, 5, and 10 min after stimulation. […] To determine whether the mimetics also reduce NF-κB DNA binding activity, electrophoretic mobility shift assay (EMSA) was conducted both in vitro and in vivo. […] The addition of acetonitrile increased the stability of both ZINC compounds, especially ZINC 5 (Fig 3D).
Fig 3 Two identified small molecules reduce NF-κB DNA binding activity in vivo and in vitro. (A) Levels of p-IκBα with or without treatment in response to TNF-α were determined by western blot analysis. HEK293 cells were pretreated with DMSO, ZINC12909780 (100 μM), and ZINC5 (100 μM) for 30 min followed by the stimulation of 10 ng/ml of TNF-α for 0, 5, and 10 min. […]
Cell lysate was prepared in RIPA buffer (20 mM Tris-HCl [pH 7.5], 150 mM NaCl, 1 mM Na^2EDTA, 1 mM EGTA, 1% NP-40, 1% sodium deoxycholate, 2.5 mM sodium pyrophosphate, 1 mM beta-glycerophosphate, 1 mM Na3VO4, and 1 μg/ml leupeptin), supplemented with 1X protease inhibitor cocktails (MilliporeSigma, St. Louis, MO) and 1X Halt phosphatase inhibitor cocktail (ThermoFisher, Waltham, MA). Protein concentrations were determined by Lowry protein assays, and 30 μg of protein was resolved by MINI-PROTEAN TGX 4%–15% SDS-PAGE gels. […]

Row | SMILES | Level of p-IκBα following TNF-α stimulation
1 | Nc1ncccc1C(=O)OCC(=O)Nc1ccc(Cl)cc1F [ZINC12909780] | less robust reduction
2 | O=C(COC(=O)Cc1ccccc1F)Nc1ccc(Cl)cn1 [ZINC5] | reduced the level of p-IκBα
